Assay results from patent US9840528B2, “Thione-platinum(II) complexes and pharmaceutical compositions thereof” (priority 2015, dated 2017).
“Also recorded” adds a separate entry of the source.

Key:
[1] = test system: A549 (human lung carcinoma) cell line; experiment: MTT assay, in vitro cytotoxicity against A549; type: cell-based; conditions: A549 cells; for in vitro cytotoxicity in comparison, A549: compared with cisplatin, carboplatin or each other; for IC50: MTT, 24 h exposure, read-out: IC50 ± SEM A549
Description: (§1) Monim-ul-Mehboob, A. A. Isab, V. Dhuna, G. Bhatia, K. Dhuna and S. Altuwaijri, New J. Chem., 39 (2015) 377-incorporated herein by reference in its entirety]. The cells were seeded at 3×10^3 cells/well in 100 μL DMEM containing 10% Fetal Bovine Serum (FBS) in 96-well tissue culture plate and incubated for 72 h at 37° C., 5% CO2, in air and 90% relative humidity in CO2 incubator. […] The medium of wells was discarded and 100 μL DMEM containing MTT (0.5 mg/ml) was added to the wells and incubated in CO2 incubator at 37° C. in dark for 4 h. After incubation, a purple colored formazan produced in the cells appeared as dark crystals in the bottom of the wells. The culture medium was discarded from each well carefully to prevent disruption of monolayer and 100 μL of dimethyl sulfoxide (DMSO) was added in each well. The solution in the wells was thoroughly mixed to dissolve the formazan crystals which produce a purple solution. The absorbance of the 96 well-plates was taken at 570 nm with Labsystems Multiskan EX ELISA reader against a reagent blank. […] The MTT assay was performed in three independent experiments, each in triplicate. […] A549 (human lung carcinoma), MCF7 (human breast cancer), HCT15 (human colon adenocarcinoma), and HeLa (human cervical cancer) cell lines. […] This cytotoxic effect was obtained by the stipulated increase in the concentrations of the complexes and cisplatin against fixed number of human cancer cells. The IC50 concentration of the complexes and Cisplatin for different human cell lines was obtained from curves between the complexes concentration and percentage viability of the cells.

[2] = test system: MCF7 (human breast cancer) cell line; experiment: MTT assay, in vitro cytotoxicity against MCF7; type: cell-based; conditions: MCF7 cells; for in vitro cytotoxicity in comparison, MCF7: compared with cisplatin or each other; for IC50: MTT, 24 h exposure, read-out: IC50 ± SEM MCF7
Description: as §1

[3] = test system: HCT15 (human colon adenocarcinoma) cell line; experiment: MTT assay, in vitro cytotoxicity against HCT15; type: cell-based; conditions: HCT15 cells; for IC50: MTT, 24 h exposure, read-out: IC50 ± SEM HCT15
Description: as §1

[4] = test system: HeLa (human cervical cancer) cell line; experiment: MTT assay, in vitro cytotoxicity against HeLa; type: cell-based; conditions: 24 h exposure, HeLa cells, read-out: IC50 ± SEM HeLa
Description: as §1

[5] = Stability in DMSO-d6 by time dependent 1H NMR; type: physicochemical; conditions: spectra after 1, 6, 12, 24, 48 and 72 h
Description: Complexes (1), (5) and (6) were dissolved in DMSO-d6 and their ^1H NMR spectra were measured. The extent of decomposition over time was determined by comparing the NMR spectra collected after 1, 6, 12, 24, 48 and 72 h.

[6] = Solubility in organic solvents; type: physicochemical

Row | Compound | in vitro cytotoxicity in comparison, A549 [1] | IC50 [1] [µM] | in vitro cytotoxicity in comparison, MCF7 [2] | IC50 [2] [µM] | IC50 [3] [µM] | IC50 [4] [µM] | change in chemical shifts and splitting patterns in time dependent 1H NMR spectra (extent of decomposition) [5] | solubility in CDCl3 ([6]; CDCl3) | solubility in DMSO and DMF ([6]; DMSO and DMF) | IC80 [2] [µM] | in vitro cytotoxic efficacy in comparison, HCT15 ([3]; compared with cisplatin and carboplatin)
1 | CN1CCNC1=S.CN1CCNC1=S.CN1CCNC1=S.CN1CCNC1=S.O.O.[Cl-].[Cl-].[Pt+2] [Complex (1), Tetrakis(1-methylimidazolidine-2-thione)platinum(II)] | in between cisplatin and carboplatin | 55.5 ± 1.08 | very similar cytotoxic data and efficacy | 74.6 ± 1.54 | 147 ± 1.77 | 142 ± 2.42 | No significant change | moderately soluble | completely soluble | – | –
2 | N.N.O=C([O-])C1(C(=O)[O-])CCC1.[Pt+2] [Carboplatin, carboplatin, reference compound] | – | 70.2 ± 1.7 | – | 53.2 ± 1.65 | 63.3 ± 1.58 | 55 ± 0.94 | – | – | – | – | –
3 | CC(C)N1CCNC1=S.CC(C)N1CCNC1=S.CC(C)N1CCNC1=S.CC(C)N1CCNC1=S.[Cl-].[Cl-].[Pt+2] [Complex (4), Tetrakis(1-isopropylimidazolidine-2-thione)platinum(II)] | almost equal cytotoxicity | 85.7 ± 1.35 | very similar cytotoxic data and efficacy | 78.1 ± 1.45 | 122 ± 1.75 | 95.44 ± 0.88 | – | – | – | – | –
4 | CCN1CCCNC1=S.CCN1CCCNC1=S.CCN1CCCNC1=S.CCN1CCCNC1=S.[Pt+2] [Complex (5), Tetrakis[1-ethyltetrahydropyrimidine-2(1H)-thione]platinum(II)] | – | 137 ± 1.77 | – | 95 ± 2.02 | 159 ± 2.9 | 166 ± 2.01 | – | – | – | – | –
5 | N.N.[Cl][Pt][Cl] [Cisplatin, cisplatin, reference compound] | – | 36.9 ± 1.88 | – | 21.3 ± 1.54 | 26.6 ± 1.07 | 18.1 ± 1.36 | – | – | – | 21.3 | –
6 | CC(C)N1CCNC1=S.CC(C)N1CCNC1=S.CC(C)N1CCNC1=S.CC(C)N1CCNC1=S.O=[N+]([O-])[O-].O=[N+]([O-])[O-].[Pt+2] [Complex (7), Tetrakis(1-isopropylimidazolidine-2-thione)platinum(II)] | almost equal cytotoxicity | 84.2 ± 1.09 | very similar cytotoxic data and efficacy | 74.4 ± 1.28 | 116 ± 2.09 | 99.9 ± 2.25 | – | – | – | – | –
7 | CCN1CCNC1=S.CCN1CCNC1=S.CCN1CCNC1=S.CCN1CCNC1=S.[Cl-].[Cl-].[Pt+2] [Complex (2), Tetrakis(1-ethylimidazolidine-2-thione)platinum(II)] | comparable to that of cisplatin; also recorded: almost two times better than that of carboplatin | 37.1 ± 1.23 | two-fold better cytotoxic agent against the MCF7 cell line than cisplatin; also recorded: two-fold better as a cytotoxic agent than cisplatin | 11.4 ± 1.34 | 41.6 ± 1.53 | 79.2 ± 1.95 | No significant change | – | – | 11.4 | lies in between cisplatin's and carboplatin's
8 | S=C1NCCCCN1.S=C1NCCCCN1.S=C1NCCCCN1.S=C1NCCCCN1.[Cl-].[Cl-].[Pt+2] [Complex (6), Tetrakis(1,3-diazepane-2-thione)platinum(II)] | – | 119 ± 2.25 | – | 121 ± 3.36 | 108 ± 2.03 | 92.5 ± 2.45 | – | – | – | – | –
9 | CCCN1CCNC1=S.CCCN1CCNC1=S.CCCN1CCNC1=S.CCCN1CCNC1=S.[Cl-].[Cl-].[Pt+2] [Complex (3), Tetrakis(1-propylimidazolidine-2-thione)platinum(II)] | in between cisplatin and carboplatin | 59.2 ± 2.6 | – | 62.9 ± 1.51 | 95.6 ± 2.14 | 133 ± 1.97 | – | – | – | – | –
